From US9255100B2 (BAYER INTELLECTUAL PROPERTY GMBH, priority 2010, dated 2016)

Each compound was assayed against T1, N-terminally GST-tagged human full length recombinant Mps-1 kinase (Homo sapiens, UniProt P33981) (assay: Mps-1 kinase assay (TR-FRET)). Settings: Mps1 IC50 [nM], 10 μM ATP, 1 μM peptide substrate, 60 min at 22° C.
T1 construct: N-terminally GST-tagged human full length recombinant Mps-1 kinase; purchased Invitrogen, Karslruhe, Germany PV4071
T1 sequence (P33981 1-857): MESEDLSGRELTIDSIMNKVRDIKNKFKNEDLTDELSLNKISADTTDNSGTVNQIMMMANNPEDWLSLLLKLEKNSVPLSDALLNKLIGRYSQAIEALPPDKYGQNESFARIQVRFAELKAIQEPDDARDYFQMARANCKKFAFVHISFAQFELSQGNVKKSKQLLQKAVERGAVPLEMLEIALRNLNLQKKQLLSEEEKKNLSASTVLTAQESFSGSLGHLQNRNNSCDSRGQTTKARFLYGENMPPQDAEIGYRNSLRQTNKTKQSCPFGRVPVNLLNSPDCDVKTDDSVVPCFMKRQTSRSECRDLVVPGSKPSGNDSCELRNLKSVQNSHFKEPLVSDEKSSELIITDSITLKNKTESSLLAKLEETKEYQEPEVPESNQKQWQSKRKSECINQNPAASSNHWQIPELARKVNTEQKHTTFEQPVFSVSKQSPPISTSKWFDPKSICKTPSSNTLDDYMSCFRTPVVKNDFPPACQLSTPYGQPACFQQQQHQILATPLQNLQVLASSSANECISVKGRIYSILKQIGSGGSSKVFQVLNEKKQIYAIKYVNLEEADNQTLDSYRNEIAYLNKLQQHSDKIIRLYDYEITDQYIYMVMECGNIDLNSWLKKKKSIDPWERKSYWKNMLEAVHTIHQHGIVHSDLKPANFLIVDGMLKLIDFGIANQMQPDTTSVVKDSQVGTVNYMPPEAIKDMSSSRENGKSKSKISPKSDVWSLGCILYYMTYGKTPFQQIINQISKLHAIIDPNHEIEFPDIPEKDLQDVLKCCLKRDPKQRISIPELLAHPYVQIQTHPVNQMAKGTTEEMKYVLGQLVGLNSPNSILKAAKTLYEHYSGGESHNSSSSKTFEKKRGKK
Type: biochemical
Experimental: The human kinase Mps-1 phosphorylates a biotinylated substrate peptide. Detection of the phosphorylated product is achieved by time-resolved fluorescence resonance energy transfer (TR-FRET) from Europium-labelled anti-phospho-Serine/Threonine antibody as donor to streptavidin labelled with cross-linked allophycocyanin (SA-XLent) as acceptor. Compounds are tested for their inhibition of the kinase activity.
N-terminally GST-tagged human full length recombinant Mps-1 kinase (purchased from Invitrogen, Karslruhe, Germany, cat. no PV4071) was used. As substrate for the kinase reaction a biotinylated peptide of the amino-acid sequence […] (C-terminus in amide form, purchased from Biosynthan GmbH, Berlin) was used.
The concentration of Mps-1 in the assay was adjusted to the activity of the enzyme lot and was chosen appropriate to have the assay in the linear range, typical enzyme concentrations were in the range of about 1 nM (final conc. in the 5 μl assay volume).
The resulting mixture was incubated 1 h at 22° C. to allow the binding of the phosphorylated peptide to the anti-phospho(Ser/Thr)-Europium-antibody. Subsequently the amount of phosphorylated substrate was evaluated by measurement of the resonance energy transfer from the Europium-labelled anti-phospho(Ser/Thr) antibody to the Streptavidin-XLent.

Row | IC50 [nM] | Compound
1 | 0.4 | Cc1cc(F)cc(Oc2cc(NCC3CCSCC3)c3ncc(-c4ccc(C(=O)NC5CC5)c(C)c4)n3n2)c1 [Example 282, N-cyclopropyl-4-{6-(3-fluoro-5-methylphenoxy)-8-[(tetrahydro-2H-thiopyran-4-ylmethyl)amino]imidazo[1,2-b]pyridazin-3-yl}-2-methylbenzamide]
2 | 10.6 | Cc1cc(-c2cnc3c(NCCC(C)(C)O)cc(-c4ccccc4CO)nn23)ccc1C(=O)NC1CC1 [Example 341, N-cyclopropyl-4-{8-[(3-hydroxy-3-methylbutyl)amino]-6-[2-(hydroxy-methyl)phenyl]imidazo[1,2-b]pyridazin-3-yl}-2-methylbenzamide]
3 | 0.1 | Cc1cc(-c2cnc3c(NCCC(F)(F)F)cc(Sc4ccccc4CO)nn23)ccc1C(=O)NC1CC1 [Example 270, N-cyclopropyl-4-(6-{[2-(hydroxymethyl)phenyl]sulfanyl}-8-[(3,3,3-trifluoropropyl)amino]imidazo[1,2-b]pyridazin-3-yl)-2-methylbenzamide]
4 | 0.4 | Cc1cc(-c2cnc3c(NCCC(F)(F)F)cc(Oc4ccc(OC(C)C)cc4)nn23)ccc1C(=O)NC1CC1 [Example 257, N-cyclopropyl-4-{6-(4-isopropoxyphenoxy)-8-[(3,3,3-trifluoropropyl)amino]imidazo[1,2-b]pyridazin-3-yl}-2-methylbenzamide]
5 | 0.4 | Cc1cc(-c2cnc3c(NCC(C)(C)O)cc(Nc4ccc(F)nc4)nn23)ccc1C(=O)NC1CC1 [Example 406, N-cyclopropyl-4-{6-[(6-fluoropyridin-3-yl)amino]-8-[(2-hydroxy-2-methylpropyl)amino]imidazo[1,2-b]pyridazin-3-yl}-2-methylbenzamide]
6 | 0.2 | Cc1cc(-c2cnc3c(NCC(C)(C)N)cc(Oc4cccc(F)c4)nn23)ccc1C(=O)NC1CC1 [Example 314, 4-{8-[(2-amino-2-methyl-propyl)amino]-6-(3-fluorophenoxy)imidazo[1,2-b]pyridazin-3-yl}-N-cyclopropyl-2-methyl-benzamide]
7 | 0.4 | Cc1cc(F)cc(Oc2cc(NCCC(F)(F)F)c3ncc(-c4ccc(C(=O)NC5CC5)c(C)c4)n3n2)c1 [Example 88, N-cyclopropyl-4-{6-(3-fluoro-5-methylphenoxy)-8-[(3,3,3-trifluoropropyl)amino]imidazo[1,2-b]pyridazin-3-yl}-2-methylbenzamide]
8 | < 1 | Cc1cc(-c2cnc3c(NCC(C)(C)O)cc(Sc4ccccc4)nn23)ccc1C(=O)NC1CC1 [Example 214, N-cyclopropyl-4-{8-[(2-hydroxy-2-methylpropyl)amino]-6-(phenylsulfanyl)imidazo[1,2-b]pyridazin-3-yl}-2-methylbenzamide]
9 | 0.3 | Cc1cc(-c2cnc3c(NCCCC(F)(F)F)cc(Nc4cccc(F)c4F)nn23)ccc1C(=O)NC1CC1 [Example 450, N-cyclopropyl-4-{6-[(2,3-difluorophenyl)amino]-8-[(4,4,4-trifluorobutyl)amino]imidazo[1,2-b]pyridazin-3-yl}-2-methylbenzamide]
10 | 3.2 | Cc1cc(-c2cnc3c(NCC(C)(C)O)cc(-c4ccccc4)nn23)ccc1C(=O)NC1CC1 [Example 12, N-cyclopropyl-4-{8-[(2-hydroxy-2-methylpropyl)amino]-6-phenylimidazo[1,2-b]pyridazin-3-yl}-2-methylbenzamide]
11 | 0.3 | Cc1cc(-c2cnc3c(NCCC(=O)N(C)C)cc(Oc4cccc(F)c4)nn23)ccc1C(=O)NC1CC1 [Example 493, N-cyclopropyl-4-[8-{[3-(dimethyl-amino)-3-oxopropyl]amino}-6-(3-fluorophenoxy)imidazo[1,2-b]pyridazin-3-yl]-2-methyl-benzamide]
12 | 0.4 | Cc1cccc(Oc2cc(NCCC(F)(F)F)c3ncc(-c4ccc(C(=O)NC5CC5)c(C)c4)n3n2)c1 [Example 470, N-cyclopropyl-2-methyl-4-{6-(3-methylphenoxy)-8-[(3,3,3-trifluoro-propyl)amino]imidazo [1,2-b]pyridazin-3-yl} benzamide]
13 | 0.3 | Cc1ccc(F)c(Nc2cc(NCC(C)(C)O)c3ncc(-c4ccc(C(=O)NC5CC5)c(C)c4)n3n2)c1 [Example 383, N-cyclopropyl-4-{6-[(2-fluoro-5-methylphenyl)amino]-8-[(2-hydroxy-2-methylpropyl)amino]imidazo[1,2-b]pyridazin-3-yl}-2-methylbenzamide]
14 | 25 | Cc1cc(-c2cnc3c(NCC(C)(C)O)cc(-c4cnn(C)c4)nn23)ccc1C(=O)NC1CC1 [Example 154, N-cyclopropyl-4-{8-[(2-hydroxy-2-methylpropyl)amino]-6-(1-methyl-1H-pyrazol-4-yl)imidazo[1,2-b]pyridazin-3-yl}-2-methylbenzamide]
15 | 2.2 | CCNC(=O)c1ccc(-c2cnc3c(NCCN4CCOCC4)cc(Oc4ccc(F)c(F)c4)nn23)cc1C [Example 588, 4-[6-(3,4-difluorophenoxy)-8-{[2-(morpholin-4-yl)ethyl]amino}imidazo[1,2-b]pyridazin-3-yl]-N-ethyl-2-methylbenzamide]
16 | 4.3 | CCNC(=O)c1ccc(-c2cnc3c(NCCN4CCOCC4)cc(Oc4ccccc4C)nn23)cc1C [Example 589, N-ethyl-2-methyl-4-[6-(2-methylphenoxy)-8-{[2-(morpholin-4-yl)ethyl]amino}imidazo[1,2-b]pyridazin-3-yl]benzamide]
17 | 6.9 | Cc1cc(-c2cnc3c(NCC(C)C)cc(C(=O)NCCO)nn23)ccc1C(=O)NC1CC1 [Example 199, 3-[4-(Cyclopropylcarbamoyl)-3-methylphenyl]-N-(2-hydroxyethyl)-8-[(2-methylpropyl)amino]imidazo[1,2-b]pyridazine-6-carboxamide]
18 | 3.1 | COc1cc(Nc2cc(NCC(C)(C)O)c3ncc(-c4ccc(C(=O)NC5CC5)c(C)c4)n3n2)ccc1F [Example 400, N-cyclopropyl-4-{6-[(4-fluoro-3-methoxyphenyl)amino]-8-[(2-hydroxy-2-methylpropyl)amino]imidazo[1,2-b]pyridazin-3-yl}-2-methylbenzamide]
19 | 32.5 | Cc1cc(-c2cnc3c(NCC(C)(C)N)cc(-c4ccccc4CO)nn23)ccc1C(=O)NC1CC1 [Example 59, 4-{8-[(2-Amino-2-methylpropyl)amino]-6-[2-(hydroxymethyl)phenyl]imidazo[1,2-b]pyridazin-3-yl}-N-cyclopropyl-2-methylbenzamide]
20 | 0.2 | Cc1ccc(Sc2cc(NCCC(F)(F)F)c3ncc(-c4ccc(C(=O)NC5CC5)c(C)c4)n3n2)c(F)c1 [Example 362, N-cyclopropyl-4-{6-[(2-fluoro-4-methylphenyl)sulfanyl]-8-[(3,3,3-trifluoropropyl)amino]imidazo[1,2-b]pyridazin-3-yl}-2-methylbenzamide]
21 | 0.1 | COc1ccc(Oc2cc(NCCS(C)(=O)=O)c3ncc(-c4ccc(C(=O)NC5CC5)c(C)c4)n3n2)c(F)c1 [Example 519, N-cyclopropyl-4-[6-(2-fluoro-4-methoxyphenoxy)-8-{[2-(methylsulfonyl)ethyl]amino]imidazo [1,2-b]pyridazin-3-yl]-2-methylbenzamide]
22 | 1 | Cc1cc(-c2cnc3c(NCC(C)(C)O)cc(SC4CCCC4)nn23)ccc1C(=O)NC1CC1 [Example 336, 4-{6-(cyclopentylsulfanyl)-8-[(2-hydroxy-2-methylpropyl)amino]imidazo[1,2-b]pyridazin-3-yl}-N-cyclopropyl-2-methyl-benzamide]
23 | 0.2 | Cc1cc(-c2cnc3c(NCC(C)(C)N)cc(Sc4cccc(F)c4)nn23)ccc1C(=O)NC1CC1 [Example 78, 4-{8-[(2-Amino-2-methylpropyl)amino]-6-[(3-fluorophenyl)sulfanyl]imidazo[1,2-b]pyridazin-3-yl}-N-cyclopropyl-2-methylbenzamide]
24 | 33.2 | C/C=C(\C)c1cc(NCCC(F)(F)F)c2ncc(-c3ccc(-c4cnc(C5CC5)[nH]4)cc3)n2n1 [Example 27, 6-[(2E)-But-2-en-2-yl]-3-[4-(2-cyclopropyl-1H-imidazol-5-yl)phenyl]-N-(3,3,3-trifluoropropyl)imidazo[1,2-b]pyridazin-8-amine]
